Measurements as given in paper PMC3914206.

Experiments:
panel of 442 kinases [1] = biological target: T1, panel of 442 kinases (Homo sapiens, UniProt P51957); format: binding; conditions: Compound Concentration 10 µM
T1 construct: purchased KINOMEscan
From the text: (§1) We assessed the selectivity of members of this scaffold using the KINOMEscan methodology across a near comprehensive panel of 442 kinases [[18,27]].

panel of 442 kinases [2] = biological target: T2, panel of 442 kinases (Homo sapiens, UniProt O60674); format: binding; conditions: Compound Concentration 10 µM
T2 construct: purchased KINOMEscan
From the text: as §1

T2 sequence (O60674 whole entry): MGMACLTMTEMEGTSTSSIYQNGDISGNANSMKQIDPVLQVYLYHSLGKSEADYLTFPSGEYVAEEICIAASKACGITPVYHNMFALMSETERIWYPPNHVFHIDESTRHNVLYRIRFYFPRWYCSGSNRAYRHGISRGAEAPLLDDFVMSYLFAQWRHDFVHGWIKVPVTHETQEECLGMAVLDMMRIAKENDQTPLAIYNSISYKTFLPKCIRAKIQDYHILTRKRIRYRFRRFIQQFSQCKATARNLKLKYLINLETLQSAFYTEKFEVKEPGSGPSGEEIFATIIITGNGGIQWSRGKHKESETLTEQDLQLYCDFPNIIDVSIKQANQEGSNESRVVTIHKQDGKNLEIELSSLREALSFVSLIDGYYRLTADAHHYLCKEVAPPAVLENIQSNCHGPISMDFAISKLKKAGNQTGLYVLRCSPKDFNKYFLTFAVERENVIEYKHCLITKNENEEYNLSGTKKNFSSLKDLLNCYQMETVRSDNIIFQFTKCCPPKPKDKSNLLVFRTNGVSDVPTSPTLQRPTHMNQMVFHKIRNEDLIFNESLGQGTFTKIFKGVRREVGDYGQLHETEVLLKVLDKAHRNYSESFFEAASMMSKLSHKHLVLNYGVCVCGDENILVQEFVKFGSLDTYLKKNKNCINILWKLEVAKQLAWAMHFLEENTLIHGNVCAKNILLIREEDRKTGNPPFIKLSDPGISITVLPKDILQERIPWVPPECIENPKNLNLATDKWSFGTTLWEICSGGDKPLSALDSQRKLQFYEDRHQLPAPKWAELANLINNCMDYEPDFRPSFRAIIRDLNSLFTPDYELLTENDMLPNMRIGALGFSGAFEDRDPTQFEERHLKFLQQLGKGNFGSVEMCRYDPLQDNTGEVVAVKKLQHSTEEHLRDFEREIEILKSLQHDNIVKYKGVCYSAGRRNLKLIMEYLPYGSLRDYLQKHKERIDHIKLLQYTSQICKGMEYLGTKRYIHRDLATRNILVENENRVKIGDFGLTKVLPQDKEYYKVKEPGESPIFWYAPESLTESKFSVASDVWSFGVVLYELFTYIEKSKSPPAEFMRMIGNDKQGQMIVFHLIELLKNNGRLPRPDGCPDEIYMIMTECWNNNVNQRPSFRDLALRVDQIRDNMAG
T1 sequence (P51957 whole entry): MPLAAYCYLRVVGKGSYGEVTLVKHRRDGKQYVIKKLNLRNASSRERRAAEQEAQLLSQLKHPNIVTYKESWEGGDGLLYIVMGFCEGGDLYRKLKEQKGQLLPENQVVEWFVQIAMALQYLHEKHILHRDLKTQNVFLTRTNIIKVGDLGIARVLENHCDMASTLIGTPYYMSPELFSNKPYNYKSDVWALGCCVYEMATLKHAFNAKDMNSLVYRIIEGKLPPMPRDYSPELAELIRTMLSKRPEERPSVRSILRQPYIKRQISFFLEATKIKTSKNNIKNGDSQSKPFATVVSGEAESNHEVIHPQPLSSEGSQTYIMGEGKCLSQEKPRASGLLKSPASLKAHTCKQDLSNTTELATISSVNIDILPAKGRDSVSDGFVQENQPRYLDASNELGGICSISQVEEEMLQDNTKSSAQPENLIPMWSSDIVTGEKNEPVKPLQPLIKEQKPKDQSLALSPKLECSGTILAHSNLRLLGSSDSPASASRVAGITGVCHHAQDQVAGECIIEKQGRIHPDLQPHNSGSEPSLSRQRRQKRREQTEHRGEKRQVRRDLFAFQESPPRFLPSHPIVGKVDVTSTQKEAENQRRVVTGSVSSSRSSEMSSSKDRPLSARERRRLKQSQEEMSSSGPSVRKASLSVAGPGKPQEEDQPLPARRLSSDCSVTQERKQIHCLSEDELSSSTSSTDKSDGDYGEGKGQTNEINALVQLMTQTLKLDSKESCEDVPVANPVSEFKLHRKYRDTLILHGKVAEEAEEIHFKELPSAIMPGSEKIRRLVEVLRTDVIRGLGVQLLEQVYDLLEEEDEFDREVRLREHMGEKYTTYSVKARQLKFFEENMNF

| SMILES | KINOMEscan: NEK4 (panel of 442 kinases [1]) | KINOMEscan: JAK2(JH1domain-catalytic) (panel of 442 kinases [2]) |
| --- | --- | --- |
| CCOc1cc(C(=O)N2CCC(N3CCN(C)CC3)CC2)ccc1Nc1ncc2c(n1)N(C1CCCC1)c1ccccc1C(=O)N2C [Compound 26] | 89 | 100 |
| COc1cc(C(=O)N2CCC(N3CCN(C)CC3)CC2)ccc1Nc1ncc2c(n1)N(C1CCCC1)c1ccccc1C(=O)N2C [Compound 25, 11-cyclopentyl-2-((2-methoxy-4-(4-(4-methylpiperazin-1-yl)piperidine-1-carbonyl)phenyl)amino)-5-methyl-5H-benzo[e]pyrimido[5,4-b][1,4]diazepin-6(11H)-one] | 97 | 95 |
| COc1cc(C(=O)N2CCC(N3CCN(C)CC3)CC2)ccc1Nc1ncc2c(n1)N(C)c1ccccc1C(=O)N2C [15 (LRRK2-IN-1)] | 95 | 70 |
